For one experiment, the system named is A549 human lung epithelium cell line. Kind of experiment: RANTES production in response to TNF-α from A549 cells. The experiment is classed as cell-based. Particulars: Homo sapiens, A549, A549 cells, 100 ng/ml TNF-α, read-out: Cellular activity grade (A549) (Cellular IC50). The gist of the method:
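RANTES released into supernatant was measured by DELFIA-type sandwich immunoassay, Eu-labelled detection antibody, 340 nm excitation/615 nm emission, recombinant RANTES standard. Beforehand, cells seeded at 4×10^4/well received test compound (1% DMSO) for 1 h at 37 °C, followed by 24 h TNF-α (100 ng/ml) stimulation.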
As to `N#Cc1c(C2CCNCC2)cc(-c2ccccc2O)nc1N` [Example 1-13], the half-inhibitory concentration (IC50) is below 1 µM.

As for `N#Cc1c(C2CCCCN2)cc(-c2ccccc2O)nc1N` (stereo not shown) [Example 1-14], the IC50 lay within 1 to 10 µM.

With `N#Cc1c(C2CNCCN2)cc(-c2ccccc2O)nc1N` (stereo not shown) [Example 1-15], the IC50 lay in the range of 1 to 10 µM.

As to `Cc1cccc(-c2cc(C3CCCNC3)c(C#N)c(N)n2)c1O` (stereo not shown) [Example 1-17], the IC50 lay within 1 to 10 µM.

On to `N#Cc1c(C2CCCNC2)cc(-c2ccc(O)cc2O)nc1N` (stereo not shown) [Example 1-18], for which the IC50 was in the range of 1 to 10 µM.

Take `N#Cc1c(C2CCCNC2)cc(-c2cccc(F)c2O)nc1N` (stereo not shown) [Example 1-19]: the IC50 was below 1 µM.

For `N#Cc1c(C2CCCNC2)cc(-c2cccc(Cl)c2O)nc1N` (stereo not shown) [Example 1-20], the IC50 was below 1 µM.

As to `Cc1cccc(O)c1-c1cc(C2CCCNC2)c(C#N)c(N)n1` (stereo not shown) [Example 1-21], the IC50 was in the range of 1 to 10 µM.

For `N#Cc1c(C2CCC(N)CC2)cc(-c2ccccc2O)nc1N` (stereo not shown) [Example 1-22], the IC50 is below 1 µM.

As for `N#Cc1c(C2CCCC(N)C2)cc(-c2ccccc2O)nc1N` (stereo not shown) [Example 1-23], the half-maximal inhibitory concentration (IC50) is below 1 µM.

Regarding `N#Cc1c([C@@H](N)Cc2ccccc2)cc(-c2ccccc2O)nc1N` [Example 1-25], the IC50 lay in the range of 1 to 10 µM.

For `COc1ccc(C[C@H](N)c2cc(-c3ccccc3O)nc(N)c2C#N)cc1` [Example 1-26], the IC50 lay in the range of 1 to 10 µM.

Consider `CCCC[C@H](N)c1cc(-c2ccccc2O)nc(N)c1C#N` [Example 1-28], for which the IC50 was above 10 µM.

`N#Cc1c([C@@H](N)CCc2ccccc2)cc(-c2ccccc2O)nc1N` [Example 1-29]: the IC50 was above 10 µM.

Consider `N#Cc1c([C@@H](N)Cc2ccc(F)cc2)cc(-c2ccccc2O)nc1N` [Example 1-30], for which the IC50 fell in the range of 1 to 10 µM.

Take `N#Cc1c([C@@H]2CCCN2)cc(-c2ccccc2O)nc1N` [Example 1-31]: the IC50 is 1 to 10 µM.

As for `C[C@H](N)c1cc(-c2ccccc2O)nc(N)c1C#N` [Example 1-32], the IC50 lay in the range of 1 to 10 µM.

For the molecule `CC(C)[C@H](N)c1cc(-c2ccccc2O)nc(N)c1C#N` [Example 1-33], the IC50 was 1 to 10 µM.

Consider `N#Cc1c([C@H](N)Cc2ccccc2)cc(-c2ccccc2O)nc1N` [Example 1-34], for which the IC50 was in the range of 1 to 10 µM.

Take `N#Cc1c(CC(N)c2ccccc2)cc(-c2ccccc2O)nc1N` (stereo not shown) [Example 1-35]: the IC50 is 1 to 10 µM.

`N#Cc1c(CCN)cc(-c2ccccc2O)nc1N` [Example 1-37]: the IC50 is below 1 µM.

For the molecule `N#Cc1c(C2CCC(C(=O)O)CC2)cc(-c2ccccc2O)nc1N` (stereo not shown) [Example 1-38], the IC50 was 1 to 10 µM.

Turning to `CCc1cc(-c2ccccc2O)nc(N)c1C#N` [Example 1-39], the IC50 was above 10 µM.

Regarding `N#Cc1c([C@H](Cc2ccccc2)NC(=O)CCN2CCCCC2)cc(-c2ccccc2O)nc1N` [Example 1-40], the IC50 lay within 1 to 10 µM.

For the molecule `N#Cc1c(C2CCCN(C(=O)CCN3CCCCC3)C2)cc(-c2ccccc2O)nc1N` (stereo not shown) [Example 1-41], the IC50 fell in the range of 1 to 10 µM.

As to `CS(=O)(=O)N1CCCC(c2cc(-c3ccccc3O)nc(N)c2C#N)C1` (stereo not shown) [Example 1-42], the IC50 fell in the range of 1 to 10 µM.

Take `CCCN(CCC)C1CCCC(c2cc(-c3ccccc3O)nc(N)c2C#N)C1` (stereo not shown) [Example 1-43]: the 50% inhibitory concentration (IC50) was below 1 µM.

In the case of `N#Cc1c(CCO)cc(-c2ccccc2O)nc1N` [Example 1-44], the IC50 fell in the range of 1 to 10 µM.

Consider `Cc1cccc(COc2cccc(O)c2-c2cc(C3CCCNC3)c(C#N)c(N)n2)c1` (stereo not shown) [Example 2-07], for which the IC50 was 1 to 10 µM.

For `Cc1ccc(COc2cccc(O)c2-c2cc(C3CCCNC3)c(C#N)c(N)n2)cc1` (stereo not shown) [Example 2-08], the IC50 is below 1 µM.

With `N#Cc1c(C2CCCNC2)cc(-c2c(O)cccc2OCc2cccc(C(F)(F)F)c2)nc1N` (stereo not shown) [Example 2-09], the IC50 is 1 to 10 µM.

For the molecule `N#Cc1c(C2CCCNC2)cc(-c2c(O)cccc2OCc2ccc(C(F)(F)F)cc2)nc1N` (stereo not shown) [Example 2-10], the IC50 is 1 to 10 µM.

On to `N#Cc1c(C2CCCNC2)cc(-c2c(O)cccc2OCc2cccc(Br)c2)nc1N` (stereo not shown) [Example 2-11], for which the IC50 fell in the range of 1 to 10 µM.

Regarding `N#Cc1c(C2CCCNC2)cc(-c2c(O)cccc2OCc2ccccc2[N+](=O)[O-])nc1N` (stereo not shown) [Example 2-12], the IC50 was 1 to 10 µM.

On to `N#Cc1c(C2CCCNC2)cc(-c2c(O)cccc2OCc2cccc([N+](=O)[O-])c2)nc1N` (stereo not shown) [Example 2-13], for which the IC50 lay within 1 to 10 µM.

In the case of `N#Cc1c(C2CCCNC2)cc(-c2c(O)cccc2OCc2ccc([N+](=O)[O-])cc2)nc1N` (stereo not shown) [Example 2-14], the IC50 is below 1 µM.

On to `N#Cc1cccc(COc2cccc(O)c2-c2cc(C3CCCNC3)c(C#N)c(N)n2)c1` (stereo not shown) [Example 2-15], for which the IC50 is below 1 µM.

In the case of `N#Cc1ccc(COc2cccc(O)c2-c2cc(C3CCCNC3)c(C#N)c(N)n2)cc1` (stereo not shown) [Example 2-16], the IC50 was below 1 µM.

With `N#Cc1c(C2CCCNC2)cc(-c2c(O)cccc2OCc2ccccc2Cl)nc1N` (stereo not shown) [Example 2-17], the IC50 is 1 to 10 µM.

In the case of `N#Cc1c(C2CCCNC2)cc(-c2c(O)cccc2OCc2cccc(Cl)c2)nc1N` (stereo not shown) [Example 2-18], the IC50 is 1 to 10 µM.

Consider `N#Cc1c(C2CCCNC2)cc(-c2c(O)cccc2OCc2ccc(Cl)cc2)nc1N` (stereo not shown) [Example 2-19], for which the IC50 is below 1 µM.

As to `N#Cc1c(C2CCCNC2)cc(-c2c(O)cccc2OCc2c(Cl)cccc2Cl)nc1N` (stereo not shown) [Example 2-20], the IC50 lay in the range of 1 to 10 µM.

On to `N#Cc1c(C2CCCNC2)cc(-c2c(O)cccc2OCc2ccc3ccccc3c2)nc1N` (stereo not shown) [Example 2-21], for which the IC50 was below 1 µM.

As to `N#Cc1c(C2CCCNC2)cc(-c2c(O)cccc2OCCC2CCCCC2)nc1N` (stereo not shown) [Example 2-61], the IC50 is below 1 µM.

As for `N#Cc1c(C2CCCNC2)cc(-c2c(O)cccc2OCC2CCC2)nc1N` (stereo not shown) [Example 2-62], the IC50 was below 1 µM.

Take `CC(C)CCCOc1cccc(O)c1-c1cc(C2CCCNC2)c(C#N)c(N)n1` (stereo not shown) [Example 2-63]: the IC50 is below 1 µM.

In the case of `CCCCCCCOc1cccc(O)c1-c1cc(C2CCCNC2)c(C#N)c(N)n1` (stereo not shown) [Example 2-64], the IC50 fell in the range of 1 to 10 µM.

Turning to `N#Cc1c(C2CCCNC2)cc(-c2c(O)cccc2OCC2CC2)nc1N` (stereo not shown) [Example 2-65], the IC50 is below 1 µM.

In the case of `CC(C)CCCOc1cccc(O)c1-c1cc(C2CCNCC2)c(C#N)c(N)n1` [Example 2-66], the IC50 is below 1 µM.

With `CCCOc1cccc(O)c1-c1cc(C2CCNCC2)c(C#N)c(N)n1` [Example 2-67], the IC50 is below 1 µM.

For `N#Cc1c(C2CCNCC2)cc(-c2c(O)cccc2OCC2CCC2)nc1N` [Example 2-68], the IC50 is below 1 µM.

In the case of `CCCCCOc1cccc(O)c1-c1cc(C2CCNCC2)c(C#N)c(N)n1` [Example 2-69], the IC50 is below 1 µM.

With `N#Cc1c(C2CCNCC2)cc(-c2c(O)cccc2OCCC2CCCCC2)nc1N` [Example 2-70], the IC50 is below 1 µM.

On to `CC(C)COc1cccc(O)c1-c1cc(C2CCNCC2)c(C#N)c(N)n1` [Example 2-71], for which the IC50 is below 1 µM.

With `CCCCCCCOc1cccc(O)c1-c1cc(C2CCNCC2)c(C#N)c(N)n1` [Example 2-73], the IC50 is below 1 µM.

Regarding `C=CCOc1cccc(O)c1-c1cc(C2CCNCC2)c(C#N)c(N)n1` [Example 2-74], the IC50 is below 1 µM.

Take `CCOc1cccc(O)c1-c1cc(C2CCNCC2)c(C#N)c(N)n1` [Example 2-75]: the IC50 was below 1 µM.

The experiment is the same for the next values; noted with them: Homo sapiens, A549 cells, 100 ng/ml TNF-α, read-out: Cellular activity grade (A549) (Cellular IC50).
As to `CC(N)Cc1cc(-c2ccccc2O)nc(N)c1C#N` (stereo not shown) [Example 1-36], the IC50 lay within 1 to 10 µM.

For orientation: IC50 means the concentration that inhibits the measured activity by half.
